Experiments:
[1] = system: NFAT mediated transcriptional activity of Jurkat cells; test: NFAT luciferase reporter in Jurkat(-PD1) cells co-cultured with wild type Raji or Raji-PD-L1 cells without or with SEE; assay type: cell-based; settings: for inhibition on NFAT activity of Jurkat cells: presence of SEE; for modulation effect on basal NFAT activity: absence of SEE, wild type Raji or PD-L1 over-expressed Raji cells; for modulation of basal NFAT activity: S compounds up to 40 uM; for inhibition of SEE triggered NFAT activity: at 20 to 40 uM, SEE 10 ng/ml
[2] = system: Lck, Fyn, Zap70, LAT and Pyk2; test: Western blot of protein phosphorylation of T cell receptor downstream cascades in Jurkat cells; assay type: cell-based; settings: 45 min
Description: FIGS. 8A-8D are western blot analyses showing effects of YIV-906 (FIG. 8A), single herbs (FIG. 8A), the fractions of YIV-906 (FIG. 8B), P (FIG. 8C), and S (FIG. 8D) on protein phosphorylation of T cell receptor signaling cascades including, Lck, Fyn, Zap70, LAT and Pyk2. […] All eluted fractions were dried and reconstituted with water to equivalent concentration at 100 mg/ml. Jurkat cells were treated with YIV-906 (FIG. 8A), single herbs (FIG. 8A), the fractions of YIV-906 (FIG. 8B), P (FIG. 8C), and S (FIG. 8D) at equivalent dose 320 ug/ml for 45 min. Western blot analysis was used to determine the protein phosphorylation using specific antibodies. GAPDH was used to normalize the protein loading.
FIGS. 9A-9B show chemical identification of fractions of P (FIG. 9A) and S (FIG. 9B) after C18 column fractionation and their impacts on protein phosphorylation for Lck, Zap70, Lat, Fyn/Src, Pyk2. Equivalent concentration, 10 mg/ml, was used for LC-MS analysis. Equivalent concentration, 320 ug/ml for 45 min, was used for treating Jurkat cells for western blotting analysis. Identified chemicals (putative), based on their mass and mass of their fragments, were listed under each fraction. Non-identified chemical was not listed in this figure. Fraction could induce phosphorylation of specific protein was indicted as red upward arrow.
FIG. 10 show effects of S and P compounds on protein phosphorylation of T cell receptor signaling cascades including, Lck, Fyn, Zap70, LAT and Pyk2. Jurkat cells were treated with S and P compounds for 45 min. Western blot analysis was used to determine the protein phosphorylation using specific antibodies.
Jurkat-PD1 cells 10^6/ml were placed in 24 well plate treated with YIV-906 or its components herbs for 45 minutes. After spinning down the cells at 1000 g centrifugation for 10 min, red blood cells were lysed with 1 ml BD pharm lyse on ice. Cells were collected at 1000 g centrifugation for 10 min. 2×10^6 cells were used for each staining sample. The cells were prepared with 2X protein loading buffer (Tris pH 6.8 1M, SDS 1%, glycerol, B-mercaptoethanol, bromophenol blue, distilled water). The samples were then heated to 95° C. for 5 minutes to denature the proteins prior to western blot. SDS polyacrylamide gel electrophoresis (10% Mini-Protean TGX™ Precast Protein Gels, BioRad) was used to separate proteins according to their electrophoretic mobility. The protein extractions were deposited in the wells of the gel, 10 μL per well. The migration was performed in a 1X running buffer (Tris/Glycine/SDS) at 180 V for 50 minutes. The transfer of the proteins was performed on a PVDF membrane in the transfer buffer (Tris-CAPS AX, methanol, SDS 10%, distilled water) at 75 V for 1 hour. The non-specific binding sites on the PVDF membrane were blocked with a blocking solution (3% milk powder and 1X TBS-T) for 30 minutes. Then, the PVDF membrane was incubated with the primary antibody against the proteins of interest overnight at 4° C. The information of primary antibodies is as follows: P-Lck-Y394 (Biolegend, #933101), P-Zap70-Y319 (Cell signaling, #2717), P-LAT-Y191 (Cell signaling, #3584) P-SRC (Fyn) Y416 (Cell, signaling, #6943), P-Pyk2-Y402 (Cell signaling, 3291), GAPDH (Cell Signaling, #5174). […] Image-J was used to quantify the total intensity of immunoreactive bands. […]

SHP2 = molecular target: T1, SHP2 (Homo sapiens, UniProt Q06124); test: SHP2 activity, p-Nitrophenyl Phosphate (pNPP) colorimetric assay; assay type: biochemical; settings: 40 uM
T1 sequence (Q06124 1-593): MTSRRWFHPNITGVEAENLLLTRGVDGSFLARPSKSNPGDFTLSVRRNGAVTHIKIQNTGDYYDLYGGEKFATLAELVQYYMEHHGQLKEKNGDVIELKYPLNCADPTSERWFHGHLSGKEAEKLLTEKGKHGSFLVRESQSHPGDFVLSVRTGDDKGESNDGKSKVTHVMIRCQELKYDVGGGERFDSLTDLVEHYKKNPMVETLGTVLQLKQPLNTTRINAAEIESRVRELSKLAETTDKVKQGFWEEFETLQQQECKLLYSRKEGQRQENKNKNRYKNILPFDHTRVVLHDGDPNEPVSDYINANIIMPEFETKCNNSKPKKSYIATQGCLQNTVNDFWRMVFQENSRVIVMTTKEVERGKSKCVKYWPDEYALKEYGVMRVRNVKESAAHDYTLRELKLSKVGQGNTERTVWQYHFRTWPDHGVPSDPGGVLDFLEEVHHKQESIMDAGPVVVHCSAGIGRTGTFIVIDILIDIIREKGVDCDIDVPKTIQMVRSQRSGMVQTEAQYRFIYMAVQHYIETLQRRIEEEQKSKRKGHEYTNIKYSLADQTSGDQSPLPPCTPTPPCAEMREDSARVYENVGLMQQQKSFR

[3] = system: NFAT mediated transcriptional activity of Jurkat-PD1 TCRαβ knockout cells; test: NFAT luciferase reporter in TCRαβ knockout Jurkat-PD1 cells; assay type: cell-based
[4] = molecular target: CD19 naturally expressed on the cell surface of Raji cells (UniProt P15391); test: cell-based or functional assay
[5] = Jurkat-PD1 with wild type Raji or PD-L1 over-expressed Raji cells, without SEE

Sequence of CD19 naturally expressed on the cell surface of Raji cells (P15391 20-556 limits assumed): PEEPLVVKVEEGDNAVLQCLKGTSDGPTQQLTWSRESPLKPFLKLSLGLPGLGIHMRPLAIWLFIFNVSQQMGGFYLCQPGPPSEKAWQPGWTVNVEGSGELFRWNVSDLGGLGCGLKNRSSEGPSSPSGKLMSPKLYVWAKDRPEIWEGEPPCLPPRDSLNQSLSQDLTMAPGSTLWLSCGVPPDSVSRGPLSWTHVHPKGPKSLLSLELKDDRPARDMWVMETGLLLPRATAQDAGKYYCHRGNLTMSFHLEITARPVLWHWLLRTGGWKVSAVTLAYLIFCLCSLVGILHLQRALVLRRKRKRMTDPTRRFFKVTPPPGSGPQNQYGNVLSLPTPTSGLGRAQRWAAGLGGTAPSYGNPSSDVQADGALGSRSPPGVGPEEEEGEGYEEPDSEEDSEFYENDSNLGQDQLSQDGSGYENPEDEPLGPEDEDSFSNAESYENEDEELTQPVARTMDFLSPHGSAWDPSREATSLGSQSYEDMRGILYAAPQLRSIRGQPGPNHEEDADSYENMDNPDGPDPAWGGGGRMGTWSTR

COc1ccc2c(c1O)-c1c(O)c(OC)cc3c1[C@H](C2)[N+](C)(C)CC3 [Magnoflorine]
inhibition on NFAT activity of Jurkat cells ([1]; Z compound up to 40 uM): showed inhibition on NFAT activity

C[C@]12C[C@@H](O)[C@@H]3C[C@@]1(O[C@@H]1O[C@H](CO)[C@@H](O)[C@H](O)[C@H]1O)[C@@]3(COC(=O)c1ccccc1)C(=O)O2 [Albiforin]
inducing P-Zap70-Y319 and P-Pyk2-Y402 [2]: some effect

O=C(O)[C@H]1O[C@@H](Oc2cc3oc(-c4ccccc4)cc(=O)c3c(O)c2O)[C@H](O)[C@@H](O)[C@@H]1O [Baicalin]
inhibitory effect on SHP2, S compounds (SHP2): showed inhibitory effect on SHP2 | induction effect on P-Zap70-Y319, P-SRC (Fyn)-Y416 and P-Pyk2-Y402 ([2]; 40 uM): some induction effect

CC1(C)[C@@H](O)CC[C@]2(C)[C@H]3C(=O)C=C4[C@@H]5C[C@@](C)(C(=O)O)CC[C@]5(C)CC[C@@]4(C)[C@]3(C)CC[C@@H]12 [glycyrrhetinic acid]
inhibitory effect on SHP2, G compounds (SHP2): relatively higher inhibitory effects on SHP2 than other G compounds

O=C(/C=C/c1ccc(O)cc1)c1ccc(O)cc1O [Isoliquiritigenin]
modulation effect on basal NFAT activity ([1]; 10 uM): some modulation effect | inhibition on NFAT activity of Jurkat cells ([1]; 40 uM): showed inhibition on NFAT activity

C=CC(C)(C)c1cc(/C=C/C(=O)c2ccc(O)cc2)c(OC)cc1O [licochalcone A]
inhibition on NFAT activity of Jurkat cells ([1]; 40 uM): showed inhibition on NFAT activity | modulation effect on basal NFAT activity ([1]; 10-20 uM): some modulation effect

C[C@@]12C[C@@]3(O)O[C@@H](O1)[C@]1(COC(=O)c4ccccc4)[C@H]3C[C@@]12O[C@@H]1O[C@H](CO)[C@@H](O)[C@H](O)[C@H]1O [Paeoniforin]
inducing P-Zap70-Y319 and P-Pyk2-Y402 [2]: some effect

CC1(C)[C@@H](O[C@H]2O[C@H](C(=O)O)[C@@H](O)[C@H](O)[C@H]2O[C@@H]2O[C@H](C(=O)O)[C@@H](O)[C@H](O)[C@H]2O)CC[C@]2(C)[C@H]3C(=O)C=C4[C@@H]5C[C@@](C)(C(=O)O)CC[C@]5(C)CC[C@@]4(C)[C@]3(C)CC[C@@H]12 [Glycyrrhizic acid]
inhibitory effect on SHP2, G compounds (SHP2): relatively higher inhibitory effects on SHP2 than other G compounds

Anti-PD1: antibody produced from Nivolumab clone; InVivoSIM anti-human PD-1 (Nivolumab Biosimilar)
rescue of depressed NFAT activity (due to the interaction of PD1 and PD-L1) in Jurkat-PD1 cells ([1]; Raji-PD-L1 cells, SEE 10 ng/ml or 30 ng/ml, YIV-906 160 ug/ml, nivolumab biosimilar 18 ug/ml): rescued the depressed NFAT activity

O=c1cc(-c2ccccc2)oc2cc(O)c(O)c(O)c12 [baicalein]
modulation of basal NFAT activity [1, 5]: could modulate the basal NFAT activity | inhibition of SEE triggered NFAT activity [1]: could inhibit SEE triggered NFAT activity | inhibitory effect on SHP2, S compounds (SHP2): showed inhibitory effect on SHP2 | impact on NFAT activity, Jurkat-PD1 versus Jurkat-PD1 TCRαβ KO cells [3]: very similar impact on NFAT activity | induction of protein phosphorylation of all examined proteins (Lck, Zap70, LAT, Fyn, Pyk2) ([2]; 40 uM): could strongly induce protein phosphorylation of all examined proteins

O=C1C[C@@H](c2ccc(O)cc2)Oc2cc(O)ccc21 [liquiritigenin]
modulation effect on basal NFAT activity ([1]; 40 uM): some modulation effect

COc1c(O[C@@H]2O[C@H](C(=O)O)[C@@H](O)[C@H](O)[C@H]2O)cc(O)c2c(=O)cc(-c3ccccc3)oc12 [wogonoside]
inhibitory effect on SHP2, S compounds (SHP2): showed inhibitory effect on SHP2

O=C1C[C@@H](c2ccc(O[C@@H]3O[C@H](CO)[C@@H](O)[C@H](O)[C@H]3O)cc2)Oc2cc(O)ccc21 [liquiritin]
modulation effect on basal NFAT activity ([1]; 20 uM): some modulation effect

COc1c(O)cc2oc(-c3ccccc3)cc(=O)c2c1O [oroxylin A]
modulation of basal NFAT activity [1, 5]: could modulate the basal NFAT activity | inhibition of SEE triggered NFAT activity [1]: could inhibit SEE triggered NFAT activity | inhibitory effect on SHP2, S compounds (SHP2): showed inhibitory effect on SHP2 | impact on NFAT activity, Jurkat-PD1 versus Jurkat-PD1 TCRαβ KO cells [3]: very similar impact on NFAT activity

COc1c(O[C@@H]2O[C@H](C(=O)O)[C@@H](O)[C@H](O)[C@H]2O)cc2oc(-c3ccccc3)cc(=O)c2c1O [oroxylin A 7-O-beta-D-glucuronide]
modulation of basal NFAT activity [1, 5]: could modulate the basal NFAT activity | dose required to achieve 2-fold activity of NFAT ([1]; basal, without SEE, Jurkat-PD1 with wild type Raji or PD-L1 over-expressed Raji cells): 40 µM | inhibitory effect on SHP2, S compounds (SHP2): showed inhibitory effect on SHP2 | impact on NFAT activity, Jurkat-PD1 versus Jurkat-PD1 TCRαβ KO cells [3]: very similar impact on NFAT activity | induction effect on P-Zap70-Y319, P-SRC (Fyn)-Y416 and P-Pyk2-Y402 ([2]; 40 uM): some induction effect

COc1c(CC=C(C)C)c(O)cc2oc(=O)c(-c3ccc(O)cc3O)cc12 [glycycoumarin]
modulation effect on basal NFAT activity ([1]; 10 uM): some modulation effect

chimeric antigen receptor (CAR-CD19-CD3zeta) on Jurkat-PD1 NFAT-luc cells
NFAT activity of Jurkat-PD1 CAR-CD19 cells co-cultured with Raji (NFAT luciferase reporter) [4]: 40 fold

From patent publication US20250177467A1, “COMPOSITIONS AND METHODS FOR MODULATING NUCLEAR FACTOR OF ACTIVATED T-CELLS (NFAT) ACTIVITY OF T CELLS” (Yale University, priority 2022, published 2025)
